Experimental data from patent publication US20250032460A1, “METHODS OF TREATING NEUROLOGICAL DISORDERS” (MapLight Therapeutics, Inc., priority 2021, published 2025).

Legend:
[1] = Single ascending dose study with or without fesoterodine fumarate: safety and tolerability; assay type: in vivo, healthy adult volunteers
Procedure: Compound 1 was administered in a single ascending dose (SAD) study conducted in approximately 54 healthy adult volunteers to investigate Compound 1 pharmacokinetics, safety, and tolerability. The study was conducted in two groups.
Group 1 evaluated multiple dose cohorts administered Compound 1 in a single ascending dose (SAD) manner to establish a maximum tolerated dose (MTD) using the doses described in Table 10.
(§1) MTD was established at the dose which produced mild to moderate cholinergic adverse effects. Cholinergic effects were monitored for each dose, including pupillometry and salivation.
(§2) Group 2 evaluated tolerability of Compound 1 at Group 1 MTD with or without fesoterodine fumarate co-administration. Subjects received 8 mg of fesoterodine fumarate tablet or matched placebo tablet 4 hours prior to administration of 40 mg of Compound 1.

[2] = Plasma concentrations during 7-day oral dosing in beagle dogs; assay type: in vivo; conditions: male, beagle, dog, in vivo, po, 1.5 mg/kg/day
[3] = system: Amphetamine-Induced Hyperlocomotion; experiment: Compound 1 effect on amphetamine-induced hyperlocomotion (open field); assay type: in vivo, mice; conditions: for average (mean) centimeters traveled over 30 minutes: open field, vehicle cohort 7500 cm
Procedure: The hyperdopaminergic state underlying LID was modeled in naïve male wild-type c57/B16 mice by administration of d-amphetamine, a drug which rapidly elevates synaptic dopamine levels.
A single dose of 3 mg/kg of intraperitoneal (IP) d-amphetamine was administered to 32 male wild-type c57/B16 mice at approximately 8-weeks of age. Subsequently, the animals were subdivided into 3 groups and co-administered either a single dose of intraperitoneal vehicle only, Compound 1 at 0.3 mg/kg, or Compound 1 at 1 mg/kg. The locomotor behavior of the animals in an open field chamber (44 cm×44 cm×20 cm dimension) was monitored using a video tracking system (Noldus EthoVision v15). Over 30 minutes, the average (mean) centimeters traveled (+standard deviation) identified were: • 7500 cm (±314.9) in vehicle cohort • 5141 cm (±805.6) in the Compound 1 0.3 mg/kg cohort ([…] one-way ANOVA followed by Tukey's multiple comparison) • 2008 cm (±406.2) in the Compound 1 1.0 mg/kg cohort (p <0.001)

[4] = system: salivation; experiment: Single ascending dose study: salivation (pharmacodynamics); assay type: in vivo, healthy adult volunteers; conditions: Group 1, 1-40 mg Compound 1 (FIG. 1)
Procedure: as §1, §2

[5] = Group 2: 40 mg Compound 1, 4 hours after 8 mg fesoterodine fumarate tablet or placebo tablet
[6] = Plasma concentration of Compound 1, Mean

Cc1noc([C@@]23CNC[C@@H]2C3)n1 [Compound 1, 1-(3-methyl-[1,2,4]oxadiazol-5-yl)-(1R,5R)-3-aza-bicyclo[3.1.0]hexane]
subjects who reported TEAEs ([1]; Group 1, 1 mg, placebo 50.0%): ~33.3%
subjects who reported TEAEs ([1]; Group 1, 3 mg, placebo 50.0%): About 50.0%
subjects who reported TEAEs ([1]; Group 1, 10 mg, placebo 50.0%): About 50.0%
subjects who reported TEAEs ([1]; Group 1, 20 mg, placebo 50.0%): About 50.0%
subjects who reported TEAEs ([1]; Group 1, 40 mg, placebo 50.0%): ~83.3%
subjects who reported TEAEs ([1]; Group 1, 60 mg, placebo 50.0%): ~100%
deaths, serious TEAEs, discontinuations ([1]; Group 1, 1-60 mg single oral dose): no deaths or serious TEAEs reported, and no subjects discontinued the study due to a TEAE
total treatment-emergent adverse events (TEAEs) ([1]; Group 1, 36 subjects who received any dose of compound 1 (1-60 mg single oral)): 95
subjects with TEAEs (number of the 36 subjects) ([1]; Group 1, any dose of compound 1): 22
subjects with TEAEs ([1]; Group 1, any dose of compound 1, of the 36 subjects): 61.6%
day of onset of TEAEs (Day 1 = day of dosing) [1, 5]: 1 days
deaths, serious or severe TEAEs [1, 5]: no deaths, serious or severe TEAEs reported
most frequent TEAEs observed [1, 5]: salivary hypersecretion and dizziness
number of TEAEs reported [1, 5]: 9
subjects who reported TEAEs [1, 5]: 100.0%
MTD of Compound 1 when administered alone ([1]; single oral dose, healthy subjects): 40 mg
safety and tolerability ([1]; single oral doses ranging from 1 mg to 40 mg, healthy subjects): generally safe and well tolerated
Plasma concentration of Compound 1, Mean ([2]; 1 h): 387 ng/mL
Plasma concentration of Compound 1, Mean ([2]; 2 h): 470.6 ng/mL
Plasma concentration of Compound 1, Mean ([2]; 4 h): 99.48 ng/mL
Plasma concentration of Compound 1, Mean ([2]; 8 h): 17.098 ng/mL
concentration at 1 h [2, 6]: 378 ng/mL
concentration at 2 h [2, 6]: 288 ng/mL
concentration at 4 h [2, 6]: 98.6 ng/mL
concentration at 8 h [2, 6]: 14.7 ng/mL
effect on hyperdopaminergic-mediated motor behavior ([3]; 0.3 and 1 mg/kg IP, d-amphetamine-treated mice): reverses hyperdopaminergic-mediated motor behavior in a dose-dependent manner
average (mean) centimeters traveled over 30 minutes ([3]; Compound 1 0.3 mg/kg IP co-administered with d-amphetamine 3 mg/kg IP, p<0.5): 5141 cm
average (mean) centimeters traveled over 30 minutes ([3]; Compound 1 1.0 mg/kg IP co-administered with d-amphetamine 3 mg/kg IP, p <0.001): 2008 cm
change in salivation with dose [4]: increase in salivation was observed with increasing dose
